This note sets out measurements from US20050042213A1, “Methods and pharmaceutical compositions for modulating heparanase activation and uses thereof” (InSight Biopharmaceuticals Ltd., priority 2003, published 2005).

One test concerns 293 cell extract. Kind of test: Cleavage of Z-Pro-Lys-Lys-Glu-AMC (Peptide 1) by 293 cell extract and its inhibition by protease inhibitors. The conditions noted are these: for % Inhibition: inhibition of Z-Pro-Lys-Lys-Glu-AMC cleavage by 293 cell extract. On the set-up: % Inhibition: concentration or dose not given beside the values. In kind it is biochemical, human. How it is done:
Following a 20 minutes incubation at 37° C., fluorescence released due to proteolytic activity was determined using a BMG POLARstar™ Galaxy fluorometer: excitation at 390 nm and emission at 460 nm.

The next test addresses T1, pro-heparanase (H60) (Homo sapiens, UniProt Q9Y251, K307R).
T1 sequence (Q9Y251 36-543 K307R): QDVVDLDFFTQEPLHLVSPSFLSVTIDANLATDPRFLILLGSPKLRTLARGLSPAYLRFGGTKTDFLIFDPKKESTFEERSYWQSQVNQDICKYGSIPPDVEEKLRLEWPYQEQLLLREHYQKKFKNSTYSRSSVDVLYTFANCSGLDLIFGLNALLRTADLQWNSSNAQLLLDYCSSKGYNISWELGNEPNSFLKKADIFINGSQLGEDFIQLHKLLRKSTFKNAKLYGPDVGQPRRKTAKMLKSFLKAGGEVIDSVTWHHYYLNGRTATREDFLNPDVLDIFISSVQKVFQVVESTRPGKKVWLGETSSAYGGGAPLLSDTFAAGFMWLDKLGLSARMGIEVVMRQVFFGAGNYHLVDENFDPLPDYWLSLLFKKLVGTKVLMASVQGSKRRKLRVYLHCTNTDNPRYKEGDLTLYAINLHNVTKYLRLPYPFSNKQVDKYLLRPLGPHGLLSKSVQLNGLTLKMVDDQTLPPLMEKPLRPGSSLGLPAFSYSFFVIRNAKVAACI
Description: Pro-heparanase activation in a cell-based assay (293 cells, DMB assay). Conditions: inhibition of pro-heparanase activation.

The nature of test [1]: Heparin binding of compounds (heparin sepharose CL-6B beads). Conditions: compound at 5 uM. How it is done: Heparin binding—5 μM of the selected compound was prepared in a solution of PBS pH 7.2 with 0.05% Tween and 5% DMSO. […] Excess water was discarded by filtration using a Multiscreen vacuum manifold (Millipore, Cat No. MAVM 096 00). 200 μl of each compound tested was transferred to three wells of the filter plate—one empty well, one with sepharose CL-6B and one with heparin sepharose CL-6B. Plates were rotated for 2 hrs at 37° C. followed by filtration to a new 96 well clear plate, using a Multiscreen vacuum manifold. The absorbance spectrum of the filtrate in each well was determined using a VERSAmax plate reader (Molecular devices). Percent of heparin binding was calculated from the binding to heparin sepharose CL-6B as compared to the binding of the compound to the control sepharose CL-6B beads.

[2] abbreviates: Table 7, 5-(5-Phenyl-furan-2-ylmethylene)rhodanine analogs.
Setting [3] is: Table 11, heparin-binding compounds.
Where [4] appears, read: Table 12, known inhibitors of cathepsin B activity.

In general, % Inhibition refers to how much of the control response was suppressed. A word on the IC50: it is the point on the concentration scale where inhibition reaches its midpoint.

Where a SMILES comes first, the peptide text is derived from it. [ ]: non-standard residue; d: D form. The star is where a group is joined. AMC = Cc1cc(=O)oc2cc(N*)ccc12; Nle = CCCC[CH](N)C(=O)O; Cbz = O=C(OCc1ccccc1)*; NHOH = ON*

Turning to `CSCC[C@@H](C=O)NC(=O)[C@H](CC(C)C)NC(=O)[C@H](CC(C)C)NC(C)=O` [Calpain inhibitor II, N-Acetyl-Leu-Leu-Met-CHO] (Ac-Leu-Leu-Met-aldehyde), the “% Inhibition” value with 293 cell extract was found to be 98%. Turning to `O=C[C@H](Cc1ccc(O)cc1)NC(=O)[C@H](Cc1ccccc1)NC(=O)OCc1ccccc1` [Cathepsin L inhibitor II] (Cbz-Phe-Tyr-aldehyde), the “% Inhibition” value with 293 cell extract is listed as 97%. In turn, `O=C(O)CCCCCN1C(=O)C(=Cc2ccc(-c3ccc(Cl)cc3)o2)SC1=S` [Compound 2] displayed an IC50 at pro-heparanase (H60) (setting [2]) of 0.52 µM. On the same count and under the same terms, then `O=C(O)CCCN1C(=O)C(=Cc2ccc(-c3ccccc3[N+](=O)[O-])o2)SC1=S` [Compound 3], with 14.3 µM; and `O=C(O)CCN1C(=O)C(=Cc2ccc(-c3ccccc3)o2)SC1=S` [Compound 7], with 2.3 µM; and `O=C(O)CCN1C(=O)C(=Cc2ccc(-c3ccccc3Cl)o2)SC1=S` [Compound 8], with 6 µM. Turning to `O=C(O)CCN1C(=O)C(=Cc2ccc(-c3ccc(Cl)cc3Cl)o2)SC1=S` [Compound 9], on pro-heparanase (H60) (setting [2]), the midpoint of inhibition, the IC50, lay at 3 µM. On pro-heparanase (H60) (setting [2]), `O=C(O)CCN1C(=O)C(=Cc2ccc(-c3ccccc3[N+](=O)[O-])o2)SC1=S` [Compound 10] had an IC50 of 30 µM. Molecule `O=C(O)CCN1C(=O)C(=Cc2ccc(-c3ccc([N+](=O)[O-])cc3)o2)SC1=S` [Compound 11] registered an IC50 against pro-heparanase (H60) (setting [2]) of 2.8 µM.

`O=C(O)CN1C(=O)C(=Cc2ccc(-c3ccccc3Cl)o2)SC1=S` [Compound 14] showed an IC50 against pro-heparanase (H60) (setting [2]) of 32 µM. Take `O=C(O)CN1C(=O)C(=Cc2ccc(-c3cccc(Cl)c3)o2)SC1=S` [Compound 15]: the IC50 against pro-heparanase (H60) (setting [2]) was determined as 2 µM.

In turn, `O=C(O)CN1C(=O)C(=Cc2ccc(-c3ccc(Cl)cc3)o2)SC1=S` [Compound 16] came in with an IC50 at pro-heparanase (H60) (setting [2]) of 3.8 µM. On the same count and under the same terms, then `O=C(O)CN1C(=O)C(=Cc2ccc(-c3cc(Cl)ccc3Cl)o2)SC1=S` [Compound 17], with 20 µM; and `O=C(O)CN1C(=O)C(=Cc2ccc(-c3ccc(Cl)cc3Cl)o2)SC1=S` [Compound 18], with 18 µM; and `O=C(O)CN1C(=O)C(=Cc2ccc(-c3ccc([N+](=O)[O-])cc3Cl)o2)SC1=S` [Compound 20], with 29 µM.

`O=C(O)CN1C(=O)C(=Cc2ccc(-c3ccc(I)cc3)o2)SC1=S` [Compound 22] showed an IC50 against pro-heparanase (H60) (setting [2]) of 27 µM.

With `O=C(O)CN1C(=O)C(=Cc2ccc(-c3ccccc3[N+](=O)[O-])o2)SC1=S` [Compound 24], half-maximal inhibition at pro-heparanase (H60) (setting [2]) (IC50) required 37 µM. At pro-heparanase (H60) (setting [2]), `Cc1cc([N+](=O)[O-])ccc1-c1ccc(C=C2SC(=S)N(CC(=O)O)C2=O)o1` [Compound 25] showed an IC50 of 21 µM. At pro-heparanase (H60) (setting [2]), `O=C(O)CN1C(=O)C(=Cc2ccc(-c3cccc(C(F)(F)F)c3)o2)SC1=S` [Compound 26] had an IC50 of 7 µM. The same measure, in the same setting: then `O=C(O)CN1C(=O)C(=Cc2ccc(-c3cccc(C(=O)O)c3)o2)SC1=S` [Compound 27], with 46 µM.

In turn, `O=C1C(=Cc2ccc(-c3cccc([N+](=O)[O-])c3)o2)SC(=S)N1CCS(=O)(=O)O` [Compound 35] gave an IC50 against pro-heparanase (H60) (setting [2]) of 41 µM. Same read-out and setting: then `O=C1NC(=S)SC1=Cc1ccc(-c2ccc(Br)cc2)o1` [Compound 36], with 13 µM; and `Cc1ccc(-c2ccc(C=C3SC(S)=NC3=O)o2)cc1Cl` [Compound 37], with 18 µM. `O=C1C(=Cc2ccc(-c3ccc([N+](=O)[O-])cc3Cl)o2)SC(=S)N1c1ccccc1` [Compound 46] gave an IC50 on pro-heparanase (H60) (setting [2]) of 250 µM. For the molecule `O=C(O)c1cccc(-c2ccc(C=C3SC(=S)N(c4ccccc4)C3=O)o2)c1` [Compound 47], it took 5 µM to reach half-maximal inhibition on pro-heparanase (H60) (setting [2]) (IC50). For `O=C(O)c1ccc(-c2ccc(C=C3SC(=S)N(c4ccccc4)C3=O)o2)cc1` [Compound 48], at pro-heparanase (H60) (setting [2]), the IC50 is 0.95 µM. With `O=C(O)c1ccc(-c2ccc(C=C3SC(=S)N(c4cccc([N+](=O)[O-])c4)C3=O)o2)cc1` [Compound 56], the IC50 on pro-heparanase (H60) (setting [2]) was determined as 13 µM. `Cc1c(N2C(=O)C(=Cc3ccco3)SC2=S)c(=O)n(-c2ccccc2)n1C` [Compound 76] displayed an IC50 against pro-heparanase (H60) (Table 8, 5-(Heteroaryl-2-ylmethylene)rhodanine analogs) of 52 µM.

For `C=CCn1c(=O)/c(=C\C=C2/Nc3c(sc(C)c3C)N2CC)s/c1=C\c1sc(-c2ccccc2)c(-c2ccccc2)[n+]1CC` [Compound 113], the IC50 on pro-heparanase (H60) (setting [3]) was determined as 2.61 µM. Also, the “Binding to heparin (5 uM)” value in test [1] turned out to be 73%. `C=CCn1c(=O)/c(=C\C=C2\C=CN(CC)c3ccccc32)s/c1=C\c1sc(-c2ccccc2)c(-c2ccccc2)[n+]1CC` [Compound 114]: the IC50 at pro-heparanase (H60) (setting [3]) amounted to 7 µM. Further, in test [1], the “Binding to heparin (5 uM)” value worked out at 48%. For the molecule `CCN1C=C/C(=C/C=c2/s/c(=C\c3sc(-c4ccccc4)c(-c4ccccc4)[n+]3CC)n(CC)c2=O)c2ccccc21` [Compound 115], the IC50 on pro-heparanase (H60) (setting [3]) worked out at 12 µM. The “Binding to heparin (5 uM)” value in test [1] is reported as 66%. At pro-heparanase (H60) (setting [3]), `CN(C)c1ccc(/C=C/C2=[N+](C)c3ccccc3C2(C)C)cc1` [Compound 116] returned an IC50 of 3 µM. Besides, in test [1], the “Binding to heparin (5 uM)” value is given as 71%. In the same order, the values of `CN(C)c1ccc(/C=C/c2sc3ccc4ccccc4c3[n+]2C)cc1` [Compound 117] are 9 µM and 66%. For `CC[n+]1c(/C=C/Nc2ccccc2)sc2c3ccccc3sc21` [Compound 118] the same measures were 6 µM and 61%. Turning to `CCN1/C(=C/C=C/c2sc3ccc(OC)cc3[n+]2CC)Sc2ccc3ccccc3c21` [Compound 119], the IC50 on pro-heparanase (H60) (setting [3]) was found to be 1.74 µM. In addition, the “Binding to heparin (5 uM)” value in test [1] was 51%. Molecule `CCC(/C=C1\Sc2ccc3ccccc3c2N1CC)=C\c1sc2ccc(-c3ccccc3)cc2[n+]1CC` [Compound 120] displayed an IC50 at pro-heparanase (H60) (setting [3]) of 3.5 µM. Also, in test [1], the “Binding to heparin (5 uM)” value is on record as 61%. On to `CC[n+]1ccc(/C=C/C=C2\Sc3ccc4ccccc4c3N2C)c2ccccc21` [Compound 121], for which the half-maximal inhibitory concentration (IC50) at pro-heparanase (H60) (setting [3]) was 5.27 µM. Besides, the “Binding to heparin (5 uM)” value in test [1] is given as 47%.

As to `CN1\C(=C/C=C/C=C/C=C/C2=[N+](C)c3ccccc3C2(C)C)C(C)(C)c2ccccc21` [Compound 122], the IC50 on pro-heparanase (H60) (setting [3]) worked out at 16 µM. Also, the “Binding to heparin (5 uM)” value in test [1] is recorded as 65%.

Turning to `CCCCC(C=O)NC(=O)C(CC(C)C)NC(=O)C(CC(C)C)NC(C)=O` (stereo not drawn) [Compound 123, reference compound] (Ac-Leu-Leu-[Nle]-aldehyde; configuration not given here), 7.4 µM corresponded to half-maximal inhibition at pro-heparanase (H60) (setting [4]) (IC50). `CSCCC(C=O)NC(=O)C(CC(C)C)NC(=O)C(CC(C)C)NC(C)=O` (stereo not drawn) [Compound 124, reference compound] (Ac-Leu-Leu-Met-aldehyde; configuration not given here) returned an IC50 against pro-heparanase (H60) (setting [4]) of 10 µM.

Turning to `CCCNC(=O)C1OC1C(=O)NC(C(=O)N1CCCC1C(=O)OC)C(C)CC` (stereo not drawn) [Compound 125, reference compound], the IC50 on pro-heparanase (H60) (setting [4]) was 23 µM.

With `CC(=O)NC(CC(C)C)C(=O)NC(CC(C)C)C(=O)NC(C=O)CCCNC(=N)N` (stereo not drawn) [Compound 126, reference compound], at pro-heparanase (H60) (setting [4]), the IC50 is 26 µM. As to `CC(C)CC(NC(=O)C1OC1C(=O)O)C(=O)NCCCCNC(=N)N` (stereo not drawn) [Compound 127, reference compound], the IC50 at pro-heparanase (H60) (setting [4]) amounted to 32 µM.

`O=C1C(=Cc2ccc(-c3cccc(Cl)c3Cl)o2)SC(=S)N1c1ccccc1` [Compound 1013-0169] registered an IC50 against pro-heparanase (H60) (setting [2]) of 129 µM. On to `CC(C)C[C@H](NC(=O)[C@H]1O[C@@H]1C(=O)O)C(=O)NCCCCN=C(N)N` [Compound E-64], for which the “% Inhibition” value in the test on 293 cell extract came out at 93%. The same measure, in the same setting: the figure for `CC(=O)N[C@@H](CC(C)C)C(=O)N[C@@H](CC(C)C)C(=O)N[C@H](C=O)CCCNC(=N)N` [Leupeptin] is 97%; for `O=C(O)[C@@H](Cc1ccccc1)NS(=O)(=O)c1ccc(-c2ccccc2)cc1` [MMP 2,9 inhibitor] it is 0%.

As for `CC(C)CC(NC(=O)C1CCCN1C(=O)OCc1ccccc1)C(=O)NCC(=O)NO` (stereo not drawn) [Z-Pro-Leu-Gly hydroxamate] (Cbz-Pro-Leu-Gly-{NHOH}; configuration not given here), the “% Inhibition” value in the test with 293 cell extract was 0%.

As to `N=C(N)c1ccccc1` [benzamidine], the “% Inhibition” value in the test on 293 cell extract worked out at 13%. With “Z-Glu-His-Tyr-Gln-AMC (Cbz-EHYQ-{AMC}; SMILES Cc1cc(=O)oc2cc(NC(=O)[C@H](CCC(N)=O)NC(=O)[C@H](Cc3ccc(O)cc3)NC(=O)[C@H](Cc3c[nH]cn3)NC(=O)[C@H](CCC(=O)O)NC(=O)OCc3ccccc3)ccc12) [Peptide 2]”, the “cleavage by 293 cell extract” value in the test on 293 cell extract (different pHs, pH range 4.5-7.5) is listed as “not cleaved”.
